Reference: patent US10676485B2, “Macrocyclic MCL-1 inhibitors and methods of use” (AbbVie Inc., priority 2017, dated 2020)
pKi: −log10 of the molar value. Like-named read-outs stand apart in the source and are kept apart here.

Tests used:
GST-MCL-1 = GST-MCL-1 (Homo sapiens (Human), UniProt Q07820); test: TR-FRET MCL-1 binding assay (competition with probe F-Bak); conditions: for Ki: read-out: MCL-1 Binding Ki (nM, 10% HS), in the presence of 10% HS; for pKi: without HS, read-out: MCL-1 Binding Ki
Chain of GST-MCL-1 (Q07820 whole entry): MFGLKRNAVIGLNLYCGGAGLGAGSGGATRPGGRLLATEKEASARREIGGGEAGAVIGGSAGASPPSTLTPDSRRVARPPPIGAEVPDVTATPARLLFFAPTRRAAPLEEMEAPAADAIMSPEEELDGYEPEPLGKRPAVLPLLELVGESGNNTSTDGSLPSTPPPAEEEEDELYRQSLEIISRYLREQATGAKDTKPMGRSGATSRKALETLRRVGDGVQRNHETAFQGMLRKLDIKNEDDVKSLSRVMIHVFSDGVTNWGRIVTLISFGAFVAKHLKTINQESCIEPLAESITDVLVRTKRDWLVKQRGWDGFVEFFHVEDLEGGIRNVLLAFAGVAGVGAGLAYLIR
Method in brief: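 Tested both in plain buffer and with 10% human serum. Top concentration 25 μM, 11 three-fold steps, 2 h room-temperature incubation of GST-MCL-1 with Tb-labelled anti-His antibody and F-Bak probe. Time-resolved FRET: 340 nm excitation, 520/525 and 495/510 nm emission.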

[1] = tested on: AMO-1 human multiple myeloma tumor cell line; test: AMO-1 cell viability assay (CellTiter-Glo); type: cell-based; conditions: AMO1, read-out: AMO-1 Viability IC50 (μM), 10% FBS, 24 hours of compound treatment
[2] = tested on: NCI-H929 human multiple myeloma tumor cell line; test: NCI-H929 cell viability assay (CellTiter-Glo); type: cell-based; conditions: NCI-H929, read-out: H929 Viability IC50 (μM), 10% FBS, 24 hours of compound treatment
AMO-1 xenograft = AMO-1 xenograft model of multiple myeloma; type: in vivo; conditions: Mus musculus, AMO1, 25 mg/kg/day, IP, QDx1, SCID/bg mice; for change in vivo at 25 mg/kg: read-out: TGD (%); for inhibition in vivo at 25 mg/kg: read-out: TGImax (%)
Protocol: Tumors were size matched at approximately 200 mm^3. […] Tumor volume was estimated two to three times weekly. […] Mice were euthanized when tumor volume reached 3,000 mm3 or skin ulcerations occurred. Eight mice were housed per cage. Food and water were available ad libitum.
Tumor growth inhibition is calculated by 100*(1−Tv/Cv) where Tv and Cv are the mean tumor volumes of the treated and control groups, respectively.

Compound | Ki (GST-MCL-1) [nM] | pKi (GST-MCL-1) | IC50 [1] [nM] | IC50 [2] [µM] | change in vivo at 25 mg/kg (AMO-1 xenograft) [%] | inhibition in vivo at 25 mg/kg (AMO-1 xenograft) [%]
Cc1c(Cl)c2c(Cl)c(C)c1-c1c(-c3ccc(F)cc3)sc3ncnc(c13)O[C@@H](C(=O)O)Cc1cc(ccc1OCc1ccnc(-c3ccc(OC[C@@H]4COCCO4)cc3)n1)OC[C@@H](CN1CCN(C)CC1)O2 [Example 7, (7R,16R)-19,23-dichloro-10-{[2-(4-{[(2S)-1,4-dioxan-2-yl]methoxy}phenyl)pyrimidin-4-yl]methoxy}-1-(4-fluorophenyl)-20,22-dimethyl-16-[(4-methylpiperazin-1-yl)methyl]-7,8,15,16-tetrahydro-18,21-etheno-13,9-(metheno)-6,14,17-trioxa-2-thia-3,5-diazacyclononadeca[1,2,3-cd]indene-7-carboxylic acid] | 0.92 | 10.44 | 0.171 | 0.000406 | 477 | 99
Cc1c(Cl)c2c(Cl)c(C)c1-c1c(-c3ccc(F)cc3)sc3ncnc(c13)O[C@@H](C(=O)O)Cc1cc(ccc1OCc1ccnc(-c3ccccc3OCC3COC(C)(C)O3)n1)OC[C@@H](CN1CCN(C)CC1)O2 (stereo in doubt) [Example 3, (7R,16R)-19,23-dichloro-10-{[2-(2-{[(4R)-2,2-dimethyl-1,3-dioxolan-4-yl]methoxy}phenyl)pyrimidin-4-yl]methoxy}-1-(4-fluorophenyl)-20,22-dimethyl-16-[(4-methylpiperazin-1-yl)methyl]-7,8,15,16-tetrahydro-18,21-etheno-13,9-(metheno)-6,14,17-trioxa-2-thia-3,5-diazacyclononadeca[1,2,3-cd]indene-7-carboxylic acid] | 0.365 | 10.48 | 0.26 | 0.0037 | 58 | 75
Cc1c(Cl)c2c(Cl)c(C)c1-c1c(-c3ccc(F)cc3)sc3ncnc(c13)O[C@@H](C(=O)O)Cc1cc(ccc1OCc1ccnc(N3CCC(F)(COC[C@@H]4COCCO4)CC3)n1)OC[C@@H](CN1CCN(C)CC1)O2 [Example 8, (7R,16R)-19,23-dichloro-10-({2-[4-({[(2S)-1,4-dioxan-2-yl]methoxy}methyl)-4-fluoropiperidin-1-yl]pyrimidin-4-yl}methoxy)-1-(4-fluorophenyl)-20,22-dimethyl-16-[(4-methylpiperazin-1-yl)methyl]-7,8,15,16-tetrahydro-18,21-etheno-13,9-(metheno)-6,14,17-trioxa-2-thia-3,5-diazacyclononadeca[1,2,3-cd]indene-7-carboxylic acid] | 2.27 | 9.71 | 0.86 | 0.00176 | 46 | 79
Cc1c(Cl)c2c(Cl)c(C)c1-c1c(-c3ccc(F)cc3)sc3ncnc(c13)O[C@@H](C(=O)O)Cc1cc(ccc1OCc1ccnc(-c3ccc(OC[C@H]4COC(C)(C)O4)cc3)n1)OC[C@@H](CN1CCN(C)CC1)O2 [Example 1, (7R,16R)-19,23-dichloro-10-{[2-(4-{[(4S)-2,2-dimethyl-1,3-dioxolan-4-yl]methoxy}phenyl)pyrimidin-4-yl]methoxy}-1-(4-fluorophenyl)-20,22-dimethyl-16-[(4-methylpiperazin-1-yl)methyl]-7,8,15,16-tetrahydro-18,21-etheno-13,9-(metheno)-6,14,17-trioxa-2-thia-3,5-diazacyclononadeca[1,2,3-cd]indene-7-carboxylic acid] | 0.582 | 10.38 | 0.31 | 0.00502 | 133 | 95
Cc1c(Cl)c2c(Cl)c(C)c1-c1c(-c3ccc(F)cc3)sc3ncnc(c13)O[C@@H](C(=O)O)Cc1cc(ccc1OCc1ccnc(-c3ccc(NC[C@H]4COCCO4)nc3)n1)OC[C@@H](CN1CCN(C)CC1)O2 [Example 36, (7R,16R)-19,23-dichloro-10-({2-[6-({[(2S)-1,4-dioxan-2-yl]methyl}amino)pyridin-3-yl]pyrimidin-4-yl}methoxy)-1-(4-fluorophenyl)-20,22-dimethyl-16-[(4-methylpiperazin-1-yl)methyl]-7,8,15,16-tetrahydro-18,21-etheno-13,9-(metheno)-6,14,17-trioxa-2-thia-3,5-diazacyclononadeca[1,2,3-cd]indene-7-carboxylic acid] | 0.05 | 12.00 | 0.0488 | 0.000183 |  | 
Cc1c(Cl)c2c(Cl)c(C)c1-c1c(-c3ccc(F)cc3)sc3ncnc(c13)O[C@@H](C(=O)O)Cc1cc(ccc1OCc1ccnc(N3CCC(OC[C@H]4COCCO4)CC3)n1)OC[C@@H](CN1CCN(C)CC1)O2 [Example 10, (7R,16R)-19,23-dichloro-10-{[2-(4-{[(2R)-1,4-dioxan-2-yl]methoxy}piperidin-1-yl)pyrimidin-4-yl]methoxy}-1-(4-fluorophenyl)-20,22-dimethyl-16-[(4-methylpiperazin-1-yl)methyl]-7,8,15,16-tetrahydro-18,21-etheno-13,9-(metheno)-6,14,17-trioxa-2-thia-3,5-diazacyclononadeca[1,2,3-cd]indene-7-carboxylic acid] | 3.07 | 9.46 | 0.502 | 0.00217 |  | 
Cc1c(Cl)c2c(Cl)c(C)c1-c1c(-c3ccc(F)cc3)sc3ncnc(c13)O[C@@H](C(=O)O)Cc1cc(ccc1OCc1ccnc(-c3cccc(OC[C@@H]4COCCO4)c3)n1)OC[C@@H](CN1CCN(C)CC1)O2 [Example 22, (7R,16R)-19,23-dichloro-10-{[2-(3-{[(2S)-1,4-dioxan-2-yl]methoxy}phenyl)pyrimidin-4-yl]methoxy}-1-(4-fluorophenyl)-20,22-dimethyl-16-[(4-methylpiperazin-1-yl)methyl]-7,8,15,16-tetrahydro-18,21-etheno-13,9-(metheno)-6,14,17-trioxa-2-thia-3,5-diazacyclononadeca[1,2,3-cd]indene-7-carboxylic acid] | 0.89 | 10.80 | 0.142 | 0.000333 |  | 
